# Counter-ions that a name gives are not always drawn.
# Target: HIF PHD2 (Homo sapiens, UniProt Q9GZT9)
# Assay: PHD2 inhibition assay (TR-FRET, VCB-Eu detection of hydroxylated P564-HIF1α peptide)
# Type: biochemical
# Settings: 2 nM PHD2, 100 nM P564-HIF1α peptide, 0.25 μM 2-oxoglutarate
# Description: Inhibition of HIF PHD2 activity was quantified utilizing the TR-FRET technology. HIF PHD2 catalyzes a hydroxyl modification on the proline residue of the P564-HIF1α peptide substrate (Biotin-DLEMLAPYIPMDDDFQL (SEQ ID NO: 7)) resulting in recognition and binding of the europylated Von Hippel-Lindau protein (pVHL), elongin B and elongin C heterotrimeric (VCB-Eu) complex.
# The PHD2 inhibition assay was executed by addition of freshly dissolved FeCl2 to 178.57 μM (100 μM final concentration) in PHD2 Reaction Buffer containing 30 mM MES, pH 6, 10 mM NaCl, 0.25% Brij-35, 0.01% BSA, and 1% DMSO. 28 μL of the iron solution and 2 μL of inhibitor compounds serially diluted in 100% DMSO (5% DMSO final) were added to black polypropylene 96-well microtiter plates. To that, 10 μL of 10 nM PHD2 (2 nM final) was added to all wells of the plate except for the 8 wells of column 12 (LO control), and allowed to incubate at room temperature on the shaker for one hour. Column 6 was the HI control containing PHD2 enzyme and 5% DMSO vehicle, but no inhibitor compound. To initiate the PHD2 enzymatic reaction, 10 μL of a solution containing 500 nM P564-HIF1α peptide (100 nM final), 10 mM ascorbic acid (2 mM final), and 1.25 μM 2-oxoglutarate (α-ketoglutarate; 0.25 μM final) in PHD2 Reaction Buffer was added to all wells of the plate and allowed to incubate on the shaker at room temperature for one hour.
# The reaction was terminated by addition of 25 μL TR-FRET Buffer (50 mM TRIS-HCl, pH 9, 100 mM NaCl, 0.05% BSA, and 0.5% Tween-20) containing 150 mM succinate (product inhibitor; 50 mM final), 75 nM streptavidin-APC (25 nM final), and 7.5 nM VCB-Eu (2.5 nM final). The TR-FRET detection reagents were placed on a shaker for 1 hour to reach binding equilibrium before reading on the Discovery platform (PerkinElmer). Europium is excited at 315 nm and phosphoresces at 615 nm with a large Stoke's shift. APC, in turn, emits at 655 nm upon excitation at 615 nm. The TR-FRET signal is measured as the ratio of the APC 655 nm signal divided by the internal europium reference 615 nm emission signal.
# The POC (percentage of control) was determined by comparing the signal from hydroxylated peptide substrate in the enzyme reaction containing inhibitor compound with that from PHD2 enzyme with DMSO vehicle alone (HI control), and no enzyme (LO control). POC was calculated using the formula: % control (POC)=(cpd−average LO)/(average HI−average LO)*100. Data (consisting of POC and inhibitor concentration in μM) was fitted to a 4-parameter equation (y=A+((B−A)/(1+((x/C)^D))), where A is the minimum y (POC) value, B is the maximum y (POC), C is the x (cpd concentration) at the point of inflection and D is the slope factor) using a Levenburg-Marquardt non-linear regression algorithm.
# Chain of HIF PHD2 (Q9GZT9 whole entry): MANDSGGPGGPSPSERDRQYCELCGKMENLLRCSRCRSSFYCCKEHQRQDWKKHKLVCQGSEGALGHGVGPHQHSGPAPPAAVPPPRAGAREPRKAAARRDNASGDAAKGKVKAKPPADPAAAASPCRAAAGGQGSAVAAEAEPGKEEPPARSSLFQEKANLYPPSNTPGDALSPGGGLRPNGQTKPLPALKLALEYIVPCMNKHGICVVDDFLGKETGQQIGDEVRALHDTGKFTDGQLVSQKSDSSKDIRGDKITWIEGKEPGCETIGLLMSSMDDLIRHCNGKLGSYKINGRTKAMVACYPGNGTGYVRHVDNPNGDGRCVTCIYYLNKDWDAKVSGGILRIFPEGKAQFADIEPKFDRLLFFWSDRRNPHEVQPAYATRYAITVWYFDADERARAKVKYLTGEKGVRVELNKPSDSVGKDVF
row,Structure (SMILES),IC50 [nM]
1,"Cn1c(=O)c(C(=O)NCC(=O)O)c(O)c2cc(-c3ccccc3N3CCOCC3)cnc21 [Example 57, N-((4-Hydroxy-1-methyl-6-(2-(4-morpholinyl)phenyl)-2-oxo-1,2-dihydro-1,8-naphthyridin-3-yl)carbonyl)glycine]",< 50
2,"Cn1c(=O)c(C(=O)NCC(=O)O)c(O)c2cc(-c3cc(Cl)ncn3)cnc21 [Example 31, 2-(6-(6-Chloropyrimidin-4-yl)-4-hydroxy-1-methyl-2-oxo-1,2-dihydro-1,8-naphthyridine-3-carboxamido)acetic acid]",< 50
3,"Cn1c(=O)c(C(=O)NCC(=O)O)c(O)c2cc(-c3cccnc3)c(C(F)(F)F)nc21 [Example 91, 2-(4-Hydroxy-1-methyl-2-oxo-6-(pyridin-3-yl)-7-(trifluoromethyl)-1,2-dihydro-1,8-naphthyridine-3-carboxamido)acetic acid]",< 50
4,"Cn1c(=O)c(C(=O)NCC(=O)O)c(O)c2cc(N3CCCCC3)ncc21 [Example 121, 2-(4-Hydroxy-1-methyl-2-oxo-6-(piperidin-1-yl)-1,2-dihydro-1,7-naphthyridine-3-carboxamido)acetic acid, Trifluoroacetic acid salt]",50 to 100
5,"Cn1c(=O)c(C(=O)NCC(=O)O)c(O)c2cc(-c3cccs3)ncc21 [Example 109, N-((4-Hydroxy-1-methyl-2-oxo-6-(2-thienyl)-1,2-dihydro-1,7-naphthyridin-3-yl)carbonyl)glycine]",< 50
6,"COc1ccc(-c2ccc3c(O)c(C(=O)NCC(=O)O)c(=O)n(C)c3n2)cc1 [Example 16, N-((4-Hydroxy-1-methyl-7-(4-(methyloxy)phenyl)-2-oxo-1,2-dihydro-1,8-naphthyridin-3-yl)carbonyl)glycine]",50 to 100
7,"Cn1c(=O)c(C(=O)NCC(=O)O)c(O)c2cc(-c3cccnc3)ncc21 [Example 107, N-((4-Hydroxy-1-methyl-2-oxo-6-(3-pyridinyl)-1,2-dihydro-1,7-naphthyridin-3-yl)carbonyl)glycine]",50 to 100
8,"Cn1c(=O)c(C(=O)NCC(=O)O)c(O)c2cc(C3CCCCO3)cnc21 (single isomer, unassigned) [Example 70, (R)-2-(4-Hydroxy-1-methyl-2-oxo-6-(tetrahydro-2 H-pyran-2-yl)-1,2-dihydro-1,8-naphthyridine-3-carboxamido)acetic acid or (S)-2-(4-Hydroxy-1-methyl-2-oxo-6-(tetrahydro-2 H-pyran-2-yl)-1,2-dihydro-1,8-naphthyridine-3-carboxamido)acetic acid]",50 to 100
9,"Cn1c(=O)c(C(=O)NCC(=O)O)c(O)c2cc(Cl)ncc21 [Example 111, 2-(6-Chloro-4-hydroxy-1-methyl-2-oxo-1,2-dihydro-1,7-naphthyridine-3-carboxamido)acetic acid]",< 50
10,"COc1ccc2c(O)c(C(=O)NCC(=O)O)c(=O)n(C)c2n1 [Example 25, 2-(4-Hydroxy-7-methoxy-1-methyl-2-oxo-1,2-dihydro-1,8-naphthyridine-3-carboxamido)acetic acid]",< 50
11,"Cn1c(=O)c(C(=O)NCC(=O)O)c(O)c2cc(-c3ccccc3)cnc21 [Example 46, 2-(4-Hydroxy-1-methyl-2-oxo-6-phenyl-1,2-dihydro-1,8-naphthyridine-3-carboxamido)acetic acid]",100 to 500
12,"Cn1c(=O)c(C(=O)NCC(=O)O)c(O)c2cc(C3=CCOCC3)cnc21 [Example 26, 2-(6-(3,6-Dihydro-2 H-pyran-4-yl)-4-hydroxy-1-methyl-2-oxo-1,2-dihydro-1,8-naphthyridine-3-carboxamido)acetic acid]",50 to 100
13,"COc1cncc(-c2cnc3c(c2)c(O)c(C(=O)NCC(=O)O)c(=O)n3C)c1 [Example 55, N-((4-Hydroxy-1-methyl-6-(5-(methyloxy)-3-pyridinyl)-2-oxo-1,2-dihydro-1,8-naphthyridin-3-yl)carbonyl)glycine]",50 to 100
14,"Cn1c(=O)c(C(=O)NCC(=O)O)c(O)c2c(Cl)nccc21 [Example 131, 2-(5-Chloro-4-hydroxy-1-methyl-2-oxo-1,2-dihydro-1,6-naphthyridine-3-carboxamido)acetic acid]",< 50
15,"Cn1c(=O)c(C(=O)NCC(=O)O)c(O)c2cc(-c3ccc4c(c3)CCO4)cnc21 [Example 39, N-((6-(2,3-Dihydro-1-benzofuran-5-yl)-4-hydroxy-1-methyl-2-oxo-1,2-dihydro-1,8-naphthyridin-3-yl)carbonyl)glycine]",50 to 100
16,"Cn1c(=O)c(C(=O)NCC(=O)O)c(O)c2cc(C3CCCO3)cnc21 (stereo not shown) [Example 71, 2-(4-Hydroxy-1-methyl-2-oxo-6-(tetrahydrofuran-2-yl)-1,2-dihydro-1,8-naphthyridine-3-carboxamido)acetic acid]",50 to 100
17,"Cn1c(=O)c(C(=O)NCC(=O)O)c(O)c2cc(-c3ccccc3C(N)=O)cnc21 [Example 41, N-((6-(2-(Aminocarbonyl)phenyl)-4-hydroxy-1-methyl-2-oxo-1,2-dihydro-1,8-naphthyridin-3-yl)carbonyl)glycine]",50 to 100
18,"Cn1c(=O)c(C(=O)NCC(=O)O)c(O)c2ccc(-c3cccnc3)nc21 [Example 17, N-((4-Hydroxy-1-methyl-2-oxo-7-(3-pyridinyl)-1,2-dihydro-1,8-naphthyridin-3-yl)carbonyl)glycine]",< 50
19,"CC(C)Oc1ccccc1-c1cnc2c(c1)c(O)c(C(=O)NCC(=O)O)c(=O)n2C [Example 36, N-((4-Hydroxy-1-methyl-6-(2-((1-methylethyl)oxy)phenyl)-2-oxo-1,2-dihydro-1,8-naphthyridin-3-yl)carbonyl)glycine]",100 to 500
20,"Cn1c(=O)c(C(=O)NCC(=O)O)c(O)c2cc(-c3cccc(N4CCCC4)c3)cnc21 [Example 60, N-((4-Hydroxy-1-methyl-2-oxo-6-(3-(1-pyrrolidinyl)phenyl)-1,2-dihydro-1,8-naphthyridin-3-yl)carbonyl)glycine]",100 to 500
21,"Cn1c(=O)c(C(=O)NCC(=O)O)c(O)c2ccc(N3CCC(C(F)(F)F)CC3)nc21 [Example 24, 2-(4-Hydroxy-1-methyl-2-oxo-7-(4-(trifluoromethyl)piperidin-1-yl)-1,2-dihydro-1,8-naphthyridine-3-carboxamido)acetic acid]",500 to 1000
22,"Cn1c(=O)c(C(=O)NCC(=O)O)c(O)c2cc(C3CCOCC3)cnc21 [Example 34, 2-(4-Hydroxy-1-methyl-2-oxo-6-(tetrahydro-2 H-pyran-4-yl)-1,2-dihydro-1,8-naphthyridine-3-carboxamido)acetic acid]",< 50
23,"Cc1ccccc1-c1cc2c(O)c(C(=O)NCC(=O)O)c(=O)n(C)c2c(C(F)(F)F)n1 [Example 125, N-((4-Hydroxy-1-methyl-6-(2-methylphenyl)-2-oxo-8-(trifluoromethyl)-1,2-dihydro-1,7-naphthyridin-3-yl)carbonyl)glycine]",< 50
24,"CC#Cc1cnc2c(c1)c(O)c(C(=O)NCC(=O)O)c(=O)n2C [Example 84, 2-(4-Hydroxy-1-methyl-2-oxo-6-(prop-1-ynyl)-1,2-dihydro-1,8-naphthyridine-3-carboxamido)acetic acid]",100 to 500
25,"Cn1c(=O)c(C(=O)NCC(=O)O)c(O)c2ccc(C3=CCCCC3)nc21 [Example 13, 2-(7-Cyclohexenyl-4-hydroxy-1-methyl-2-oxo-1,2-dihydro-1,8-naphthyridine-3-carboxamido)acetic acid]",< 50
26,Cn1c(=O)c(C(=O)NCC(=O)O)c(O)c2cc(-c3nccc(C(F)(F)F)n3)cnc21 [Example 28],< 50
27,"Cn1c(=O)c(C(=O)N[C@@H](CO)C(=O)O)c(O)c2cc(C3=CCCCC3)cnc21 [Example 133, (S)-2-(6-cyclohexenyl-4-hydroxy-1-methyl-2-oxo-1,2-dihydro-1,8-naphthyridine-3-carboxamido)-3-hydroxypropanoic acid]",500 to 1000
28,"Cn1c(=O)c(C(=O)NCC(=O)O)c(O)c2cc(C3CC3)c(C(F)(F)F)nc21 [Example 93, 2-(6-cyclopropyl-4-hydroxy-1-methyl-2-oxo-7-(trifluoromethyl)-1,2-dihydro-1,8-naphthyridine-3-carboxamido)acetic acid]",50 to 100
